Experimental data as given in patent US8586533B2, “Treatment of early-stage osteoarthritis” (Kaohsiung Medical University, priority 2008, dated 2013).

Experiments:
[1] = tested on: human articular chondrocytes; test: Quantitative real-time PCR of mRNA levels in azaC-induced terminal differentiation culture model; assay type: cell-based
Protocol: Chondrocyte cultures were divided into 4 groups. […] Louis, Mo.) for 48 hours.

[2] = tested on: human articular chondrocytes; test: TUNEL staining, rate of apoptosis in chondrocyte cultures; assay type: cell-based; details: azaC plus PTH cultures, 10 nM, 14 days of treatment, P<0.01
Protocol: Chondrocyte cultures were divided into 4 groups.
We measured apoptotic cells using the TUNEL (terminal deoxy-nucleotidyl transferase mediated dUTP nick end labeling) staining method using the In Situ Cell Death Detection Kit, TMR red (Roche, Mannheim, Germany). Following the manufacturer's guidelines, cells were fixed with 4% paraformaldehyde in phosphate buffered saline (PBS) at a cell density of 1×10^6/ml and incubated at room temperature for 10 minutes, and then settled on a slide by centrifugation at a speed of 2,000 rpm for 5 minutes using a cytospin (Cytospin 3; Shandon, Cheshire, UK). Slides were rinsed twice with PBS, and the cells were permeabilized by incubating in permeabilization solution (0.1% Triton X-100 in 0.1% sodium citrate) for 2 minutes on ice. The TUNEL reaction mixture containing terminal deoxynucleotidyl transferase and rhodamine (the labeling dye) was added to the slides and incubated at 37° C. in a humidified chamber in the dark for 60 minutes. The reaction was stopped by a blocking buffer (0.1% Triton X-100/0.5% bovine serum albumin in PBS). Cells were counterstained by 4′,6-diamidino-2-phenylindole (DAPI). The slides were observed under a fluorescence microscope with an excitation wavelength of 580 nm for rhodamine and 365 nm for DAPI. Cell nuclei were stained blue by DAPI, and only apoptotic cells were stained red by rhodamine. Stained cells were counted in 5 microscopic fields (1.566 mm^2/field) on each slide. Data were analyzed using Image-Pro Plus analysis software (Media Cybernetics, Silver Spring, Md.). The rate of apoptosis in chondrocytes was defined as the ratio of red-stained cells (apoptotic cells) to blue-stained cells (total cells).
By using TUNEL staining, the rate of apoptosis in human articular chondrocyte cultures in the control, azaC, and azaC plus PTH groups were compared after 14 days of PTH(1-34) treatment (for the azaC plus PTH group).

PTH (1-34): 34-amino acid long peptide made up of amino-terminal amino acids 1 through 34 of human parathyroid hormone
Col2a1 expression among azaC plus PTH, azaC and control groups ([1]; 10 nM, 10 days of treatment): no significant difference
Expression of aggrecan, Col2a1, Col10a1, ALP, and IHH genes versus control group ([1]; PTH group (no azaC), 10 nM, 3-10 days of treatment): not significantly different
Bcl-2 expression ([1]; PTH group (no azaC), 10 nM, 3-10 days of treatment, not statistically significant): 1.7 times that in control
azaC-induced changes in levels of mRNA for Col10a1, ALP, and IHH ([1]; azaC plus PTH cultures, 10 nM, 3, 7 and 10 days of treatment): significantly eliminated
Expression of Col10a1 and ALP versus control cultures ([1]; azaC plus PTH cultures, 10 nM, day 3 of treatment, P<0.01): lower
Expression of ALP versus control cultures ([1]; azaC plus PTH cultures, 10 nM, day 10 of treatment, P<0.05): higher
IHH mRNA level, lower than control cultures ([1]; azaC plus PTH group, 10 nM, 3-10 days of treatment): 47-71%
aggrecan mRNA level versus azaC group ([1]; azaC plus PTH group, 10 nM, 3 and 7 days of treatment (P<0.05, P<0.01)): significantly higher
Col2a1 expression versus azaC group ([1]; azaC plus PTH group, 10 nM, 3 days of treatment, P<0.05): significantly higher
Col2a1 expression versus azaC (P<0.01) or control (P<0.05) group ([1]; azaC plus PTH group, 10 nM, 7 days of treatment): higher
aggrecan mRNA level versus azaC group ([1]; azaC plus PTH group, 10 nM, 10 days of treatment): not different
Bax expression ([1]; azaC plus PTH group, 10 nM, 14 days): 1.6 times that in the control cultures
ratio of Bcl-2 to Bax versus control group ([1]; azaC plus PTH group, 10 nM, after 3 days (P<0.05) and 10 days (P<0.01)): higher
Bcl-2 expression ([1]; azaC plus PTH group, 10 nM, after 3 days of treatment, P<0.05): 2.1 times that of control
Bcl-2 expression ([1]; azaC plus PTH group, 10 nM, after 7 days of treatment, P<0.05): 2.1 times control
Bcl-2 expression ([1]; azaC plus PTH group, 10 nM, after 10 days of treatment, P<0.01): 6.0 times control
rate of apoptosis versus azaC cultures [2]: significantly lower
rate of apoptosis versus control cultures [2]: 3.1 fold increase
